Assay results published in patent US20230293708A1, “CONJUGATE OF SAPONIN AND SINGLE-DOMAIN ANTIBODY, PHARMACEUTICAL COMPOSITION COMPRISING SAID CONJUGATE, THERAPEUTIC USE THEREOF” (SAPREME TECHNOLOGIES B.V., priority 2020, published 2023).
Like-named read-outs stand apart in the source and are kept apart here.

Columns and labels:
Experiment in all cases: Cell viability (MTS) assay, cell killing
Assay type in all cases: cell-based, human
CaSki cells = tested on: CaSki cells
Method: (§1) Cells were seeded in a 96 well plate at 5.000-10.000 c/w in 100 μL/well and incubated overnight at 37° C. […] The media was removed from the cell culture plate and replaced by 180 μL culture media, followed by the addition of 20 μL treatment-mix/well. […] In the case that endosomal acidification inhibitors (chloroquine (Sigma Aldrich) or bafilomycin A1 (Enzo Life Sciences)) were used, the cell culture media in step 1 of treatment was replaced by 180 μL media containing 1 μM chloroquine or 0.2 μM bafilomycin A1. The plate was incubated for 1 hour at 37° C., before the 10× treatment-mix samples were added. The remaining incubation and treatment steps were performed according to standard procedures known in the field.
(§2) After treatment the cells were incubated for 72 hr at 37° C. before the cell viability was determined by a MTS-assay, performed according to the manufacturer's instruction (CellTiter 96® AQueous One Solution Cell Proliferation Assay, Promega). Briefly, the MTS solution was diluted 20× in DMEM without phenol red (PAN-Biotech GmbH) supplemented with 10% FBS (PAN-Biotech GmbH). The cells were washed once with 200 μL PBS per well, after which 100 μL diluted MTS solution was added per well. The plate was incubated for approximately 20-30 minutes at 37° C. Subsequently, the optical density at 492 nm was measured on a Thermo Scientific Multiskan FC plate reader (Thermo Scientific). For quantification the background signal of ‘medium only’ wells was subtracted from all other wells, before the ratio of […].

A431 cells = tested on: A431 cells
Method: (§3) After treatment the cells were incubated for 72 hr at 37° C. before the cell viability was determined by a MTS-assay, performed according to the manufacturer's instruction (CellTiter 96® AQueous One Solution Cell Proliferation Assay, Promega). Briefly, the MTS solution was diluted 20× in DMEM without phenol red (PAN-Biotech GmbH) supplemented with 10% FBS. The cells were washed once with 200 μL/PBS well, after which 100 μL diluted MTS solution was added/well. The plate was incubated for approximately 20-30 minutes at 37° C. Subsequently, the OD at 492 nm was measured on a Thermo Scientific Multiskan FC plate reader (Thermo Scientific). For quantification the background signal of ‘medium only’ wells was subtracted from all other wells, before the cell viability percentage of treated/untreated cells was calculated, by dividing the background corrected signal of treated wells over the background corrected signal of the untreated wells (×100).
(§4) Cells were seeded in a 96 well plate at 5.000-10.000 c/w in 100 μL/well and incubated overnight at 37° C. […] The media was removed from the cell culture plate and replaced by 180 μL culture media, followed by the addition of 20 μL treatment-mix/well. […]
as §2, with “Briefly, the MTS solution was diluted 20× in DMEM without phenol red (PAN-Biotech GmbH) supplemented with 10% FBS (PAN-Biotech GmbH). The cells were washed once with 200 μL PBS per well, after which 100 μL diluted MTS solution was added per well. The plate was incubated for approximately 20-30 minutes at 37° C.” left out

SK-BR-3 cells = settings: read-out: IC50 (calculated on concentration SO1861), + fixed 1.5 pM EGF-dianthin
Method: as §3, §4
as §2, with “Briefly, the MTS solution was diluted 20× in DMEM without phenol red (PAN-Biotech GmbH) supplemented with 10% FBS (PAN-Biotech GmbH). The cells were washed once with 200 μL PBS per well, after which 100 μL diluted MTS solution was added per well. The plate was incubated for approximately 20-30 minutes at 37° C.” left out

HeLa cells = settings: + 1500 nM SO1861 (unconjugated)
Method: as §1, §2

JIMT-1 cells = settings: + 1500 nM SO1861 (unconjugated)
Method: as §1, §2

[1] = read-out: IC50 (calculated on concentration SO1861), SO1861 or mAb-SO1861 titrated + fixed 50 pM trastuzumab-saporin

Compound | IC50 (CaSki cells; [1]) [nM] | IC50 (A431 cells; read-out: IC50 (calculated on concentration SO1861), + fixed 10 pM cetuximab-saporin) [nM] | IC50 (A431 cells; [1]) [nM] | IC50 (SK-BR-3 cells) [nM] | IC50 (HeLa cells) [nM] | IC50 (JIMT-1 cells) [nM] | IC50 (CaSki cells; + 1500 nM SO1861 (unconjugated), read-out: IC50) [nM]
CC(=O)O[C@H]1[C@H](O[C@@H]2OC[C@@H](O)[C@H](O)[C@H]2O)[C@@H](O)[C@H](O[C@@H]2[C@H](O)[C@@H](O[C@@H]3O[C@@H](C)[C@H](O[C@@H]4OC[C@@H](O)[C@H](O[C@@H]5OC[C@@H](O)[C@H](O)[C@H]5O)[C@H]4O)[C@@H](O)[C@H]3O)[C@H](OC(=O)[C@]34CCC(C)(C)C[C@H]3C3=CC[C@@H]5[C@@]6(C)CC[C@H](O[C@H]7O[C@H](C(=O)O)[C@@H](O)[C@H](O[C@@H]8OC[C@@H](O)[C@H](O)[C@H]8O)[C@H]7O[C@@H]7O[C@H](CO)[C@H](O)[C@H](O)[C@H]7O)[C@@](C)(C=O)[C@@H]6CC[C@@]5(C)[C@]3(C)C[C@H]4O)O[C@@H]2C)O[C@@H]1C [SO1861] | ≥ 1000 | 600 | ≥ 1000 | 800 | – | – | –
Saporin | – | – | – | – | 0.03 | 0.03 | 0.015
